Measured values reported in US20090311344A1, “Dosing Regimen” (priority 2008, published 2009).

Assay: Multiple dose study in cancer subjects: treatment-emergent (serious) adverse events
Description: 46 subjects with cancer receiving platinum-based therapies were enrolled into 3 cohorts (N=16 in Cohort 1, 14 in Cohort 2, and 16 in Cohort 3). The subjects received the TPO mimetic peptide compound or placebo within 2 hours prior to the platinum-based chemotherapy on Day 1 of the first 2 cycles with a 21-day interval between each cycle. In addition to the Day 1 administration, gemcitabine administration was permitted on Day 8 of each cycle. Other chemotherapy medications were limited to dosing on Day 1 of each cycle only. Subjects were followed up for a total of 4 cycles of chemotherapy. Chemotherapy regimen continued beyond the first 4 cycles as per standard of care therapy. In the first cohort, 12 subjects received 1.5 μg/kg the TPO mimetic peptide compound and 4 subjects received placebo. In the second cohort 10 subjects received 3.0 μg/kg the TPO mimetic peptide compound and 4 subjects received placebo. In the third cohort, 12 subjects received 2.25 μg/kg the TPO mimetic peptide compound and 4 subjects received placebo. […] Therefore, a third cohort at a lower dose (2.25 μg/kg) was added to collect additional safety, tolerability, PD, and PK data.

## Methoxypolyethyleneglycol20000-propionyl-L-Isoleucyl-L-Glutamyl-Glycyl-L-Prolyl-L-Threonyl-L-Leucyl-L-Arginyl-L-Glutaminyl-L-2-Naphthylalanyl-L-Leucyl-L-Alanyl-L-Alanyl-L-Arginyl-Sarcosyl-Ne-(methoxypolyethyleneglycol20000-propionyl-L-Isoleucyl-L-Glutamyl-Glycyl-L-Prolyl-L-Threonyl-L-Leucyl-L-Arginyl-L-Glutaminyl-L-2-Naphthylalanyl-L-Leucyl-L-Alanyl-L-Alanyl-L-Arginyl-Sarcosyl-)-Lysinamide [TPO mimetic peptide compound]
2.25 ug/kg, n of N = 12
  Adverse event: Musculoskeletal and connective tissue disorders: 1
  Adverse event: Nausea: 2
  Adverse event: Neoplasms benign, malignant and unspecified (incl cysts and polyps): 0
  Adverse event: Nervous system disorders: 3
  Adverse event: Neuropathy peripheral: 0
  Adverse event: Neutropenia: 4
  Adverse event: Oedema: 1
  Adverse event: Oedema peripheral: 0
  Adverse event: Pain: 0
  Adverse event: Pain in extremity: 1
  Adverse event: Paraesthesia: 0
  Adverse event: Peripheral motor neuropathy: 0
  Adverse event: Peripheral sensory neuropathy: 0
  Adverse event: Platelet count decreased: 0
  Adverse event: Psychiatric disorders: 2
  Adverse event: Pyrexia: 3
  Adverse event: Rash: 0
  Adverse event: Renal and urinary disorders: 1
  Adverse event: Respiratory failure: 0
  Adverse event: Respiratory, thoracic and mediastinal disorders: 3
  Adverse event: Skin and subcutaneous tissue disorders: 3
  Adverse event: Stomatitis: 0
  Adverse event: Tachycardia: 0
  Adverse event: Thrombocythaemia: 0
  Adverse event: Thrombocytopenia: 0
  Adverse event: Tinnitus: 0
  Adverse event: Vascular disorders: 2
  Adverse event: Vomiting: 6
  Adverse event: Weight decreased: 0
  Serious adverse event: Abdominal pain: 0
  Serious adverse event: Acute myocardial infarction: 0
  Serious adverse event: Anorexia: 0
  Serious adverse event: Atrial fibrillation: 0
  Serious adverse event: Blood and lymphatic system disorders: 1
  Serious adverse event: Blood creatinine increased: 1
  Serious adverse event: Cardiac disorders: 0
  Serious adverse event: Cardiac failure: 0
  Serious adverse event: Dehydration: 1
  Serious adverse event: Dyspnoea: 1
  Serious adverse event: Fatigue: 0
  Serious adverse event: Febrile neutropenia: 1
  Serious adverse event: Gastrointestinal disorders: 1
  Serious adverse event: General disorders and administration site conditions: 0
  Serious adverse event: Hyponatraemia: 2
  Serious adverse event: Investigations: 1
  Serious adverse event: Lung abscess: 0
  Serious adverse event: Metabolism and nutrition disorders: 2
  Serious adverse event: Nausea: 0
  Serious adverse event: Neutropenia: 0
  Serious adverse event: Pain: 0
  Serious adverse event: Pyrexia: 0
  Serious adverse event: Respiratory failure: 0
  Serious adverse event: Respiratory, thoracic and mediastinal disorders: 1
  Serious adverse event: Thrombocythaemia: 0
  Serious adverse event: Thrombocytopenia: 0
  Serious adverse event: Vomiting: 1
  Total no. subjects WITH ADVERSE EVENTS: 10
  Total no. subjects WITH SERIOUS ADVERSE EVENTS: 3
3.0 ug/kg, n of N = 10
  Adverse event: Abdominal pain: 2
  Adverse event: Acute myocardial infarction: 0
  Adverse event: Alanine aminotransferase increased: 1
  Adverse event: Alopecia: 2
  Adverse event: Anemia: 1
  Adverse event: Anorexia: 2
  Adverse event: Anxiety: 0
  Adverse event: Arthralgia: 1
  Adverse event: Aspartate aminotransferase increased: 1
  Adverse event: Atrial fibrillation: 0
  Adverse event: Azotaemia: 0
  Adverse event: Blood and lymphatic system disorders: 3
  Adverse event: Blood creatinine increased: 1
  Adverse event: C-reactive protein increased: 1
  Adverse event: Cancer pain: 0
  Adverse event: Cardiac disorders: 0
  Adverse event: Cardiac failure: 0
  Adverse event: Chills: 0
  Adverse event: Confusional state: 0
  Adverse event: Constipation: 4
  Adverse event: Cough: 0
  Adverse event: Dehydration: 1
  Adverse event: Dermatitis acneiform: 0
  Adverse event: Diabetes mellitus non-insulin-dependent: 0
  Adverse event: Diarrhea: 1
  Adverse event: Dizziness: 0
  Adverse event: Dry skin: 1
  Adverse event: Dyspepsia: 0
  Adverse event: Dyspnoea: 0
  Adverse event: Ear and labyrinth disorders: 1
  Adverse event: Epistaxis: 1
  Adverse event: Eructation: 0
